# Marks after values point to notes of the source that are not given here.
# Details: pH 2.3
row,Log P,Compound
1,2.74,CC(C)C(C)NC(=C(C#N)C(=O)NC1CC1)c1cccnc1Cl (stereo not drawn) [Compound 1451]
2,3.22^[c]; 3.22^[b],CC(C)C(C)NC(=C(C#N)C(=O)NC1CSC1)c1cccnc1Cl (stereo not drawn) [Compound 1452]
3,3.44^[c]; 3.44^[b],CC(C)C(C)NC(=C(C#N)C(=O)NC1CCC1)c1cccnc1Cl (stereo not drawn) [Compound 1453]
4,2.24,CC(C)C(C)NC(=C(C#N)C(=O)NC1COC1)c1cccnc1Cl (stereo not drawn) [Compound 1455]
5,2.83^[c]; 2.83^[b],CC(C)C(C)NC(=C(C#N)C(=O)NC1CC1F)c1cccnc1Cl (stereo not drawn) [Compound 1456]
6,4.23,CCOC(=O)C(C#N)=C(NC(C)C(C)C)c1cccnc1-c1ccc(C(F)(F)F)cc1 (stereo not drawn) [Compound 1457]
7,2.66,C=CCONC(=O)C(C#N)=C(NC(C)C(C)C)c1cccnc1Cl (stereo not drawn) [Compound 1461]
8,2.28,CC(C)C(C)NC(=C(C#N)C(=O)NC1CS(=O)(=O)C1)c1cccnc1Cl (stereo not drawn) [Compound 1469]
9,3.54,CCOC(=O)C(C#N)=C(NC(C)C(C)C)c1cccnc1-c1ccc(OC)cc1 (stereo not drawn) [Compound 1472]

# Continued, compound first:
row,Compound,Log P
1,CCONC(=O)C(C#N)=C(NC(C)C(C)C)c1cccnc1Cl (stereo not drawn) [Compound 1454],2.44^[c]; 2.44^[b]
2,C=CCNC(=O)C(C#N)=C(NC(C)C(C)C)c1cccnc1Cl (stereo not drawn) [Compound 1458],3^[c]; 3^[b]

# Same assay, conditions: pH 2.7
row,Log P,Compound
1,2.8^[a],CCOC(=O)C(C#N)=C(NC(C)c1ccc(Cl)nc1)c1cccnc1Cl (stereo not drawn) [Compound 1437]
2,3.2^[a],CCOC(=O)C(C#N)=C(NC(C)c1cccc(Cl)n1)c1cccnc1Cl (stereo not drawn) [Compound 1439]
3,3.37^[a],CCOC(=O)C(C#N)=C(NC(C)c1ccc2ccccc2n1)c1cccnc1Cl (stereo not drawn) [Compound 1441]
4,3.1^[a],CCOC(=O)C(C#N)=C(NC(C)c1cnc(Cl)s1)c1cccnc1Cl (stereo not drawn) [Compound 1444]
5,4^[a],CCOC(=O)C(C#N)=C(NC(C)c1csc(-c2ccccc2)n1)c1cccnc1Cl (stereo not drawn) [Compound 1447]
6,2.59^[a],CCOC(=O)C(C#N)=C(NC(C)c1nccs1)c1scnc1Cl (stereo not drawn) [Compound 1463]
7,3^[a],CCOC(=O)C(C#N)=C(NC1CCC1)c1scnc1Cl [Compound 1465]
8,3.87^[a],CCSC(=O)C(C#N)=C(NC(C)C(C)C)c1cccnc1Cl (stereo not drawn) [Compound 1474]
9,1.81^[a],CCOC(=O)C(C#N)=C(NC(C)C(=O)NC)c1scnc1Cl (stereo not drawn) [Compound 1476]
10,4^[a],CCOC(=O)C(C#N)=C(NC(C)c1c(Cl)cccc1Cl)c1scnc1Cl (stereo not drawn) [Compound 1477]
11,1.94^[a],CCOC(=O)C(C#N)=C(NCc1ccc(C)c(C)n1)c1scnc1Cl [Compound 1478]
12,1.01^[a],CC(NC(=C(C#N)C(=O)O)c1cccnc1Cl)c1nccs1 (stereo not drawn) [Compound 1479]
13,2.98^[a],CCOC(=O)C(C#N)=C(NC(C)C1CC1)c1cnn(C)c1Cl (stereo not drawn) [Compound 1482]
14,3.25^[a],CCOC(=O)C(C#N)=C(NC(C)C(C)C)c1cnn(C)c1Cl (stereo not drawn) [Compound 1485]
15,2.42^[a],CCOC(=O)C(C#N)=C(NC(C)COC)c1cnn(C)c1Cl (stereo not drawn) [Compound 1486]
16,2.82^[a],CCOC(=O)C(C#N)=C(NC1CCC1)c1cnn(C)c1Cl [Compound 1487]
17,1.63^[a],CCOC(=O)C(C#N)=C(NC(C)C(=O)NC)c1cnn(C)c1Cl (stereo not drawn) [Compound 1488]
18,2.62^[a],C=CCOC(=O)C(C#N)=C(NC(C)c1nccs1)c1cccnc1Cl (stereo not drawn) [Compound 1490]

# More lines, now with the values behind:
row,Compound,Log P
1,CCCC(NC(=C(C#N)C(=O)OCC)c1cn(C)nc1C(F)F)C(F)(F)F (stereo not drawn) [Compound 1424],3.53^[a]
2,CCOC(=O)C(C#N)=C(NC(C)(C)CC)c1cccnc1Cl [Compound 1425],3.23^[a]
3,CCOC(=O)C(C#N)=C(Nc1cc(C(F)(F)F)ccc1SC)c1cn(C)nc1C(F)F [Compound 1426],3.67^[a]
4,CCOC(=O)C(C#N)=C(Nc1ccccc1C(O)(C(F)(F)F)C(F)(F)F)c1cn(C)nc1C(F)F [Compound 1427],3.25^[a]
5,CCOC(=O)C(C#N)=C(NC(CC(F)(F)F)c1ccccc1)c1cn(C)nc1C(F)F (stereo not drawn) [Compound 1428],3.37^[a]
6,CCOC(=O)C(C#N)=C(NCC1(C)COC1)c1cccnc1Cl [Compound 1429],2.11^[a]
7,CC#CC1(NC(=C(C#N)C(=O)OCC)c2cccnc2Cl)CCCCC1 [Compound 1430],4.06^[a]
8,CCOCC(NC(=C(C#N)C(=O)OCC)c1cccnc1Cl)C(C)C (stereo not drawn) [Compound 1431],3.69^[a]
9,CCOC(=O)C(C#N)=C(NC1CCCC1OC)c1cccnc1Cl (stereo not drawn) [Compound 1432],2.96^[a]
10,CCCC(CC)NC(=C(C#N)C(=O)OCC)c1cccnc1Cl (stereo not drawn) [Compound 1434],3.8^[a]
11,CCOC(=O)C(C#N)=C(NC1CCc2cccnc21)c1cccnc1Cl (stereo not drawn) [Compound 1436],2.4^[a]
12,CCOC(=O)C(C#N)=C(NC(C)c1cccc(OC)n1)c1cccnc1Cl (stereo not drawn) [Compound 1438],3.5^[a]
13,CCOC(=O)C(C#N)=C(NC(C)c1cccc(C)n1)c1cccnc1Cl (stereo not drawn) [Compound 1440],2.56^[a]
14,CCOC(=O)C(C#N)=C(NC(C)c1cc(C)ccn1)c1cccnc1Cl (stereo not drawn) [Compound 1442],2.6^[a]
15,CCOC(=O)C(C#N)=C(NC(C)c1ccc(Cl)cn1)c1cccnc1Cl (stereo not drawn) [Compound 1445],3.3^[a]
16,CCOC(=O)C(C#N)=C(NC(C)c1cc(Cl)cc(C)n1)c1cccnc1Cl (stereo not drawn) [Compound 1446],3.4^[a]
17,CCOC(=O)C(C#N)=C(NC(C)c1ncccc1SC)c1cccnc1Cl (stereo not drawn) [Compound 1448],3.1^[a]
18,CCOC(=O)C(C#N)=C(NC(C)c1cc(Cl)ccn1)c1cccnc1Cl (stereo not drawn) [Compound 1449],3^[a]
19,CCOC(=O)C(C#N)=C(NC(C)c1ccccn1)c1scnc1Cl (stereo not drawn) [Compound 1462],2.59^[a]
20,CCOC(=O)C(C#N)=C(NC(C)C1CC1)c1scnc1Cl (stereo not drawn) [Compound 1466],2.02^[a]
21,CCOC(=O)C(C#N)=C(NC(C)COC)c1scnc1Cl (stereo not drawn) [Compound 1467],2.61^[a]
22,CCOC(=O)C(C#N)=C(NC(C)C(C)C)c1scnc1Cl (stereo not drawn) [Compound 1468],3.46^[a]
23,CCSC(=O)C(C#N)=C(NC(C)c1nccs1)c1cccnc1Cl (stereo not drawn) [Compound 1489],2.9^[a]
24,CC(C)C(C)NC(=C(C#N)C(=O)N1CCCC1)c1cccnc1Cl (stereo not drawn) [Compound 1491],3.02^[a]

# Same assay, conditions: pH 7.5
row,Log P,Compound
1,3.16,C=CCOC(=O)C(C#N)=C(NC(C)c1nccs1)c1ccc(Cl)nc1Cl (stereo not drawn) [Compound 1450]
2,2.76,CC(C)C(C)NC(=C(C#N)C(=O)NC1CC1)c1cccnc1Cl (stereo not drawn) [Compound 1451]
3,3.22^[c]; 3.22^[b],CC(C)C(C)NC(=C(C#N)C(=O)NC1CSC1)c1cccnc1Cl (stereo not drawn) [Compound 1452]
4,3.44^[c]; 3.44^[b],CC(C)C(C)NC(=C(C#N)C(=O)NC1CCC1)c1cccnc1Cl (stereo not drawn) [Compound 1453]
5,2.26,CC(C)C(C)NC(=C(C#N)C(=O)NC1COC1)c1cccnc1Cl (stereo not drawn) [Compound 1455]
6,2.83^[c]; 2.83^[b],CC(C)C(C)NC(=C(C#N)C(=O)NC1CC1F)c1cccnc1Cl (stereo not drawn) [Compound 1456]
7,4.25,CCOC(=O)C(C#N)=C(NC(C)C(C)C)c1cccnc1-c1ccc(C(F)(F)F)cc1 (stereo not drawn) [Compound 1457]
8,1.94,CONC(=O)C(C#N)=C(NC(C)c1nccs1)c1ccc(Cl)nc1Cl (stereo not drawn) [Compound 1459]
9,2.62,C=CCONC(=O)C(C#N)=C(NC(C)C(C)C)c1cccnc1Cl (stereo not drawn) [Compound 1461]
10,2.29,CC(C)C(C)NC(=C(C#N)C(=O)NC1CS(=O)(=O)C1)c1cccnc1Cl (stereo not drawn) [Compound 1469]
11,3.59,CCOC(=O)C(C#N)=C(NC(C)C(C)C)c1cccnc1-c1ccc(OC)cc1 (stereo not drawn) [Compound 1472]

# Second part, the compound before the results:
row,Compound,Log P
1,CCOC(=O)C(C#N)=C(NC(C)C=NO)c1cccnc1Cl (stereo not drawn) [Compound 1443],1.78
2,CCONC(=O)C(C#N)=C(NC(C)C(C)C)c1cccnc1Cl (stereo not drawn) [Compound 1454],2.44^[c]; 2.44^[b]
3,C=CCNC(=O)C(C#N)=C(NC(C)C(C)C)c1cccnc1Cl (stereo not drawn) [Compound 1458],3^[c]; 3^[b]
4,CNC(=O)C(C#N)=C(NC(C)c1nccs1)c1ccc(Cl)nc1Cl (stereo not drawn) [Compound 1460],2.29
5,CCNC(=O)C(C#N)=C(NC(C)c1nccs1)c1ccc(Cl)nc1Cl (stereo not drawn) [Compound 1471],2.65

# Reference: patent US8476197B2, “Aminopropenoates as fungicides” (priority 2009, dated 2013)
